Assay results: article PMC7808749, “Morpholine-based chalcones as dual-acting monoamine oxidase-B and acetylcholinesterase inhibitors: synthesis and biochemical investigations” (Journal of Enzyme Inhibition and Medicinal Chemistry, 2021)
In brackets after ≈: the same amount, converted by molar mass. Entries after “also recorded” stand apart in the source; their conditions may differ. Where two headings read alike, the source gives them in different places.

Experiments:
[1] = PAMPA-BBB reported values; cited from earlier work
in vitro = test: in vitro
Description: The synthesised derivatives were screened for their abilities to cross the BBB using the parallel artificial membrane permeability assay (PAMPA) because this ability is a critical developmental requirement for any drug targeting neurodegenerative disorders or depression.

MAO-B [2] = target: T1, MAO-B (Homo sapiens, UniProt P27338); test: MAO-B inhibition assay (benzylamine substrate); type: biochemical; settings: for remaining activity at 1 µM: read-out: Residual activities (%) MAO-B (1.0 µM); for SI = IC50 of MAO-A/IC50 of MAO-B: selectivity for MAO-B over MAO-A
T1 sequence (P27338 1-520): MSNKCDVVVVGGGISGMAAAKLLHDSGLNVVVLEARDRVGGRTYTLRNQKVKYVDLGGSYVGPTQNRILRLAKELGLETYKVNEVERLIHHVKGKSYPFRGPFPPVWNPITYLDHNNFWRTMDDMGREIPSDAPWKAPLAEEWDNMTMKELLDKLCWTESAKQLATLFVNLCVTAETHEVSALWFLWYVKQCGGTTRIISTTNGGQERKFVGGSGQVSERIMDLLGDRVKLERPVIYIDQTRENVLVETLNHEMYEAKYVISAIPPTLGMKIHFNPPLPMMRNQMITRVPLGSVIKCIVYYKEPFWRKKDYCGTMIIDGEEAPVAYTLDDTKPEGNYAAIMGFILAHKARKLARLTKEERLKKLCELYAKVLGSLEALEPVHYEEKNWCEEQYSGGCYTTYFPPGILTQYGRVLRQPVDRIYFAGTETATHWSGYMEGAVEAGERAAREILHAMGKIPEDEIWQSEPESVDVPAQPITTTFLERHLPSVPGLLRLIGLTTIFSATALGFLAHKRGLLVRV

recombinant human MAO-A = target: T2, recombinant human MAO-A (Homo sapiens, UniProt P21397); test: MAO-A inhibition assay (kynuramine substrate); type: biochemical; settings: for remaining activity at 10 µM: read-out: Residual activities (%) MAO-A (10 µM)
T2 sequence (P21397 1-527): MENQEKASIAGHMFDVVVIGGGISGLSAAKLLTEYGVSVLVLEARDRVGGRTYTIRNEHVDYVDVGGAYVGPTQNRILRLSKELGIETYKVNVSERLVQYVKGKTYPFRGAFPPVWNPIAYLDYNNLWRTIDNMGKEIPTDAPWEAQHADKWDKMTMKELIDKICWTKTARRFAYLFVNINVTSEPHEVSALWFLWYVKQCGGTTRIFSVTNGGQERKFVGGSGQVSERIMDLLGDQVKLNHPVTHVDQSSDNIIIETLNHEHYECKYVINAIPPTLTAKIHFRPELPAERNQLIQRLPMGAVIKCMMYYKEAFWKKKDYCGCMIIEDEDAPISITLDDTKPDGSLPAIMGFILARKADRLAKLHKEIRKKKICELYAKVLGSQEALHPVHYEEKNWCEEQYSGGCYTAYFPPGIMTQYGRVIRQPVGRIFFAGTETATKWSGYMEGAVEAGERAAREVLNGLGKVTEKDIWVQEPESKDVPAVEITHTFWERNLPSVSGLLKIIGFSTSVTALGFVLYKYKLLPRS
Experimental: (§1) MAO-A, MAO-B, AChE and BChE activities were measured after exposure to inhibitors at a concentration of 10 µM. […] IC50 values were determined by measuring the residual enzyme activities. […] Ki values and inhibitor types were determined by kinetic testing, as previously described. […] Lineweaver–Burk plots and their secondary plots were used to determine Ki values and inhibitor types.

BChE = BChE (Equus caballus, UniProt P81908); test: biochemical; settings: for remaining activity at 10 µM: read-out: Residual activities (%) BChE (10 µM)
Chain of BChE (P81908 whole entry): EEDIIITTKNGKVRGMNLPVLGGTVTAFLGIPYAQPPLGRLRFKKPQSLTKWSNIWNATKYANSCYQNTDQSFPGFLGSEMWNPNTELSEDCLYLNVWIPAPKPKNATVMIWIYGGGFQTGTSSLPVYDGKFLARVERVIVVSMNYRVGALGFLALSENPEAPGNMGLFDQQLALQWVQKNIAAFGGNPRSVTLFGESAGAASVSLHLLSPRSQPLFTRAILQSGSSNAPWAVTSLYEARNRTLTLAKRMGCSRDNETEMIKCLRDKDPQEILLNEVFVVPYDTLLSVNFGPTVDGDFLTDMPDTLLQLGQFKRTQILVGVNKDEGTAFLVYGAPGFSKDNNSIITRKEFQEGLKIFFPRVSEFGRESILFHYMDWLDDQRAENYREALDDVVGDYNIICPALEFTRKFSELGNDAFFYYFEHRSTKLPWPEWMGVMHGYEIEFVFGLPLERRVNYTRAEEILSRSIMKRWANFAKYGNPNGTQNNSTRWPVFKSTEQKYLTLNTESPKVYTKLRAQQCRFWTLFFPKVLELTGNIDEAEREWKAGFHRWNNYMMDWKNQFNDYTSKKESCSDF
Experimental: Colour development was performed using 0.5 mM 5,5′-dithiobis (2-nitrobenzoic acid) (DTNB), which reacts with thiocholine (a product of ATCI by AChE or of BTCI by BChE) to produce 5-thio 2-nitrobenzoic acid.
as §1

MAO-B [3] = target: T1, MAO-B; test: Kinetics of MAO-B inhibition (Lineweaver-Burk and secondary plots); type: biochemical
Experimental: as §1

normal VERO cells = test: MTT cytotoxicity assay; settings: for IC50: Chlorocebus sabaeus, Vero, read-out: IC50 in normal VERO cells
AChE [4] = target: T3, AChE (Electrophorus electricus, UniProt O42275); test: AChE inhibition assay (modified Ellman method, ATCI); type: biochemical; settings: 15 min pre-incubation, mean ± SE
T3 sequence (O42275 24-633): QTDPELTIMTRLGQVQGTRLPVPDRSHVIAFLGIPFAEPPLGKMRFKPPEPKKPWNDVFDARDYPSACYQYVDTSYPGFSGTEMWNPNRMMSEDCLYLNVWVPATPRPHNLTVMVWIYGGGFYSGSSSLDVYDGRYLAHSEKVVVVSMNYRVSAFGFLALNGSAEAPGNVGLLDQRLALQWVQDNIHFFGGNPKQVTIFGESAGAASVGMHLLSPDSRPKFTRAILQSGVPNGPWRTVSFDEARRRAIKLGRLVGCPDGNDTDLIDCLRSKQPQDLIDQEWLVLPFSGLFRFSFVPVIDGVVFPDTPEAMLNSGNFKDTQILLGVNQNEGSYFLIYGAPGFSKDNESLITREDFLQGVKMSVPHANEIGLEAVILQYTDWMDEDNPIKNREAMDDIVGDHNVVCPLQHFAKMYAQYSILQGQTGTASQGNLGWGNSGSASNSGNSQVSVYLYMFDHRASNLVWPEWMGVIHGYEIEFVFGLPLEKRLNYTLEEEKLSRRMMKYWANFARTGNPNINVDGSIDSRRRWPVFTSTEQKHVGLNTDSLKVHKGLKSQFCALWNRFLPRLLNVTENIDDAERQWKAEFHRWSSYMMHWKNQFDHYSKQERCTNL

Hela cells = test: Total ROS assay in H2O2-treated cells; type: cell-based, human; settings: for ROS levels in H2O2-treated Hela cells: 40 µg/mL compound, 100 μg/mL H2O2, fluorescent image analysis
Description: ROS are considered to be the radicals primarily responsible for the neuronal death observed in various neurodegenerative disorders.
Figure 7.

MAO-B [5] = target: T1, MAO-B; test: Reversibility of MAO-B inhibition by dialysis; type: biochemical; settings: for MAO-B residual activity, dialysed (AD): after 6 h dialysis
Experimental: Figure 6. […] For recovery experiments, preincubated enzyme mixtures were dialysed as described in the text.
Inhibition types (reversible or irreversible) were determined by dialysis, as previously described^51,52, but by using 0.06 mM kynuramine and 0.3 mM benzylamine. For the experiment of AChE, 0.5 mM ATCI was used. […] Residual activities were calculated using the measured activities of undialyzed (AU) and dialysed (AD) solutions and the activities of untreated controls (i.e. without inhibitor).

AChE [6] = target: T3, AChE; test: Reversibility of AChE inhibition by dialysis; type: biochemical; settings: for Reversibility of AChE inhibition: dialysis; for AChE residual activity, dialysed (AD) / AChE residual activity, undialyzed (AU): inhibitor ~2 × IC50; for AChE residual activity, dialysed (AD): after 6 h dialysis; for AChE residual activity, undialyzed (AU): before dialysis
AChE [7] = target: T3, AChE; test: Kinetics of AChE inhibition (Lineweaver-Burk and secondary plots); type: biochemical
Experimental: as §1

| Compound | Papp (in vitro; PAMPA) | Prediction (BBB permeation class) (in vitro; PAMPA-BBB, class from Pe) | IC50 (MAO-B [2]) | remaining activity at 1 µM (MAO-B [2]) | SI = IC50 of MAO-A/IC50 of MAO-B (MAO-B [2]) | remaining activity at 10 µM (recombinant human MAO-A; inhibitor 10 µM, mean ± SE) | IC50 (recombinant human MAO-A; mean ± SE) | remaining activity at 10 µM (BChE) | other results |
| --- | --- | --- | --- | --- | --- | --- | --- | --- | --- |
| CN1C(C(=O)Nc2ccccn2)=C(O)c2ccccc2S1(=O)=O [Piroxicam, reference compound] | 2.35 ± 0.3 ×10⁻⁶ cm/s | CNS+/- | – | – | – | – | – | – | Bibliography Pe (×10^−6 cm s^−1) [1]: 2.5 ×10^−6 cm s^−1 |
| Cc1ccc(/C=C/C(=O)c2ccc(N3CCOCC3)cc2)cc1 [MO4] | – | – | 0.33 ± 0.03 µM | 49 ± 1.45% | 78.2 | 70.2 ± 1.24% | 25.8 ± 1.58 µM | 80.3 ± 6.43% | – |
| CCc1ccc(/C=C/C(=O)c2ccc(N3CCOCC3)cc2)cc1 [MO6] | – | – | 0.64 ± 0.04 µM | 64.1 ± 1.37% | 13.6 | 12.3 ± 1.58% | 8.7 ± 1.32 µM | 70.96 ± 0.36% | – |
| O=C(/C=C/c1ccccc1)c1ccc(N2CCOCC2)cc1 [MO1] | 16.34 ± 0.16 ×10⁻⁶ cm/s | CNS+ (CNS+ (high): Pe (10^−6 cm s^−1) > 4.00) | – | 38.1 ± 9.5% | – | – | – | 62.9 ± 2.97% | Type of MAO-B inhibition (MAO-B [3]): reversible mixed-type inhibitor; IC50 (normal VERO cells): 195 µg/mL (≈ 665 µM); Toxicity to normal VERO cells (normal VERO cells; MTT assay): non-toxic; IC50 (AChE [4]): 16.1 ± 2.24 µM; BBB permeation (in vitro; PAMPA-BBB): crossed the blood–brain barrier; IC50 (MAO-B [2]; read-out: IC50 (µM) MAO-B, mean ± SE): 0.03 ± 0.062 µM; remaining activity at 10 µM (recombinant human MAO-A): 94.2 ± 0.62%; ROS levels in H2O2-treated Hela cells (Hela cells): significantly lower ROS levels than MO9; Colony formation induced by H2O2 (Hela cells; Hela cells): markedly reduced; Reversibility of MAO-B inhibition (MAO-B [5]; dialysis): reversible inhibitor; MAO-B residual activity, dialysed (AD) (MAO-B [5]; inhibitor ~2 × IC50): 77.1% |
| NCCNC(=O)c1ccc(Cl)cn1 [Lazabemide, reference compound] | – | – | – | – | – | – | – | – | MAO-B residual activity, dialysed (AD) (MAO-B [5]; inhibitor ~2 × IC50): 90.0%; MAO-B residual activity, undialyzed (AU) (MAO-B [5]; inhibitor ~2 × IC50, before dialysis): 38.8% |
| NCCc1ccc(O)c(O)c1 [Dopamine, reference compound] | – | – | – | – | – | – | – | – | Bibliography Pe (×10^−6 cm s^−1) [1]: 0.2 ×10^−6 cm s^−1; Prediction (BBB permeation class) (in vitro; PAMPA): CNS- (key: CNS+ (high): Pe (10^−6 cm s^−1) > 4.00; CNS- (low): Pe (10^−6 cm s^−1) <2.00; CNS± (uncertain): Pe (10^−6 cm s^−1) from 4.00 to 2.00) |
| COc1ccc(/C=C/C(=O)c2ccc(N3CCOCC3)cc2)cc1 [MO3] | – | – | 1.01 ± 0.08 µM | 79.9 ± 5.28% | >39.6 | 91 ± 3.17% | > 40 µM | 56.8 ± 2.97% | – |
| O=C(/C=C/c1ccc(Br)cc1)c1ccc(N2CCOCC2)cc1 [MO9] | 14.61 ± 0.08 ×10⁻⁶ cm/s | CNS+ (CNS+ (high): Pe (10^−6 cm s^−1) > 4.00) | 0.36 ± 0.16 µM | 51.3 ± 2.42% | >111.1 | 79.8 ± 1.54% | > 40 µM | 70.2 ± 5.5% | IC50 (normal VERO cells): 188 µg/mL (≈ 506 µM); Toxicity to normal VERO cells (normal VERO cells; MTT assay): non-toxic; BBB permeation (in vitro; PAMPA-BBB): crossed the blood–brain barrier; Reversibility of AChE inhibition (AChE [6]): reversible inhibitors; AChE residual activity, dialysed (AD) (AChE [6]): 80.7%; AChE residual activity, undialyzed (AU) (AChE [6]): 33.8%; Type of AChE inhibition (AChE [7]): reversibly noncompetitively inhibited; also recorded: non-competitively |
| CN(C)c1ccc(/C=C/C(=O)c2ccc(N3CCOCC3)cc2)cc1 [MO5] | 14.4 ± 0.81 ×10⁻⁶ cm/s | CNS+ (CNS+ (high): Pe (10^−6 cm s^−1) > 4.00) | – | – | – | – | – | – | IC50 in normal VERO cells (normal VERO cells; MTT assay): 185.44 µg/mL (≈ 551 µM); Toxicity to normal VERO cells (normal VERO cells; MTT assay): non-toxic; IC50 (AChE [4]): 6.1 ± 0.0048 µM; Residual activities (%) AChE (10 µM) (AChE [4]; inhibitor 10 µM): 34.5 ± 9.51%; BBB permeation (in vitro; PAMPA-BBB): crossed the blood–brain barrier; Reversibility of AChE inhibition (AChE [6]): reversible inhibitors; AChE residual activity, dialysed (AD) (AChE [6]): 79.2%; AChE residual activity, undialyzed (AU) (AChE [6]): 35.8%; Residual activities (%) MAO-A (10 µM) (recombinant human MAO-A; inhibitor 10 µM, mean ± SE): 88.1 ± 3.43%; Type of AChE inhibition (AChE [7]): reversibly competitively inhibited; ROS levels in H2O2-treated Hela cells (Hela cells): significantly lower ROS levels than MO9; Residual activities (%) BChE (10 µM) (BChE; inhibitor 10 µM, mean ± SE): 60.86 ± 1.07% |
| O=C(/C=C/c1ccc(O)cc1)c1ccc(N2CCOCC2)cc1 [MO2] | – | – | 0.7 ± 0.23 µM | 54.5 ± 5.28% | > 57.1 | 93.8 ± 1.34% | > 40 µM | 63.5 ± 3.3% | – |
| O=C(/C=C/c1ccc(Cl)cc1)c1ccc(N2CCOCC2)cc1 [MO8] | – | – | 0.32 ± 0.16 µM | 34.6 ± 5.44% | >125.0 | 83.7 ± 4.02% | > 40 µM | 74.61 ± 0.73% | – |
| CCn1cc(C(=O)O)c(=O)c2cc(F)c(N3CCNC(C)C3)c(F)c21 (stereo not shown) [Lomefloxacin, reference compound] | 1.26 ± 0.01 ×10⁻⁶ cm/s | CNS- (CNS- (low): Pe (10^−6 cm s^−1) <2.00) | – | – | – | – | – | – | – |
| O=C(/C=C/c1ccc([N+](=O)[O-])cc1)c1ccc(N2CCOCC2)cc1 [MO7] | – | – | 0.25 ± 0.05 µM | 26.1 ± 5.44% | 28.4 | – | 7.1 ± 0.41 µM | 70.2 ± 4.76% | – |
